Source: patent US6492371B2, “Use of cyclic GMP-specific phosphodiesterase inhibitors for treatment of Parkinson's Disease” (priority 2000, dated 2002)
Where a name gives a salt, the structure may show the parent alone.

Key:
[1] = oral, monotherapy; rapid peripheral metabolism by dopa decarboxylase and COMT; cited from earlier work
[2] = system: effectiveness of L-dopa and dopaminergic ergot derivatives in PD; conditions: therapy of PD, combination with L-dopa and lisuride; cited from earlier work
[3] = system: anti-parkinson action of bromocriptine; conditions: patients with PD, concomitant caffeine and bromocriptine; cited from earlier work
[4] = system: Parkinson's symptoms; assay: Administration of a PDE5 inhibitor compound to a patient suffering from Parkinson's Disease; type: in vivo, human; conditions: one patient with PD administered the PDE5 inhibitor
From the text: The PDE5 inhibitor was 5-(2-ethoxy-5-(4-methyl-1-piperazinylsulphonyl)phenyl)-1-methyl-3-n-propyl-1,6-dihydro-7H-pyrazolo[4,3-d]pyrimidin-7-one, otherwise known as sildenafil citrate (Viagra®).

For N[C@@H](Cc1ccc(O)c(O)c1)C(=O)O [L-dopa], the “fraction of orally administered L-dopa that penetrates into brain” value [1] is listed as “Less than 1%”.

In the case of COc1ccc(C2CNC(=O)C2)cc1OC1CCCC1 (stereo not shown) [Rolipram, rolipram], the “potentiation of the effect of L-dopa and lisuride” value [2] is listed as “failed to potentiate the effect of L-dopa and lisuride”.

For Cn1c(=O)c2c(ncn2C)n(C)c1=O [caffeine], the “potentiation of the anti-parkinson action of bromocriptine” value [3] is listed as “failed to potentiate the anti-parkinson action of bromocriptine”.

With CCCc1nn(C)c2c(=O)[nH]c(-c3cc(S(=O)(=O)N4CCN(C)CC4)ccc3OCC)nc12 [sildenafil citrate, 5-(2-ethoxy-5-(4-methyl-1-piperazinylsulphonyl)phenyl)-1-methyl-3-n-propyl-1,6-dihydro-7H-pyrazolo[4,3-d]pyrimidin-7-one] the “effect on Parkinson's symptoms noted by the patient” value [4] was “an improvement in their Parkinson's symptoms”.
